Reference: patent US10391201B2, “Gene therapy” (Ospedale San Raffaele S.r.l., priority 2014, dated 2019)

Tests used:
Format in all cases: cell-based, human
[1] = tested on: cord blood (CB)-derived CD34+ cells
Experimental: (§1) Human CB and BM-derived haematopoietic stem/progenitor cells (HSPC) were cultured in serum-free StemSpan medium (StemCell Technologies) supplemented with 100 ng/mL recombinant human stem cell factor (rhSCF), 20 ng/mL recombinant human thrombopoietin (rhTPO), 100 ng/mL recombinant human Flt3 ligand (rhFlt3) and 20 ng/mL recombinant human IL6 (rhIL6) (all from Peprotech) 16 to 24 hours prior to transduction. HSPC were then transduced at a concentration of 1×10^6 cells per mL with vesicular stomatitis virus glycoprotein (VSV-G)-pseudotyped SINLV for 20 hours at the indicated multiplicity of infection (MOI) in the same medium. After transduction, cells were washed and maintained serum-free StemSpan supplemented with cytokines as above until the reading of GFP-positive (GFP+) cells by FACS. After FACS they were maintained in Roswell Park Memorial Institute medium (RPMI, Lonza) supplemented with 10% FBS, 25 ng/mL rhSCF, 5 ng/mL rhIL6, 25 ng/mL rhFlt3 and 5 ng/mL rhTPO for another seven days before analysis of vector copy numbers. MDM were transduced 7 days after differentiation. T lymphocytes were transduced at a concentration of 10^6 cells per mL, after 3 days of stimulation. All the cells were exposed to the vector for 16-20 hours.
(§2) They were added to the transduction medium at the indicated concentration and washed out with the vector 16-20 hours later.
(§3) GFP expression in transduced cells was measured 5-7 days post-transduction. Adherent MDM were detached by scraping in 5 mM PBS-EDTA, washed and resuspended in PBS containing 2% FBS. Cells grown in suspension were washed and resuspended in PBS containing 2% FBS. To exclude dead cells from the analysis, 10 ng/mL 7-aminoactinomycin D (7-AAD) was added.
(§4) DNA from cell cultures was extracted using a Maxwell 16 instrument (Promega) or Blood & Cell Culture DNA Micro Kit (Qiagen). To amplify the vector sequence, primers and probes complementary to the vector Rev responsive element sequence were used. Vector copy numbers and replication intermediates were normalised to genomic DNA content, which was assessed using the human TERT gene. Quantitative polymerase chain reaction (qPCR) primers and probe sequences and conditions were previously described (Santoni de Sio, F. R. et al (2006) Blood 107: 4257-65).

[2] = tested on: bone marrow (BM)-derived CD34+ cells
Experimental: as §1, §2, §3, §4

CB-derived CD34+ cells = assay: γ-retroviral SINRV-GFP transduction of CB-derived CD34+ cells; conditions: CB-derived HSPC; MOI of 10 (FIG. 24)

SMILES: CO[C@H]1C[C@@H]2CC[C@@H](C)[C@@](O)(O2)C(=O)C(=O)N2CCCC[C@H]2C(=O)O[C@H]([C@H](C)C[C@@H]2CC[C@@H](O)[C@H](OC)C2)CC(=O)[C@H](C)/C=C(\C)[C@@H](O)[C@@H](OC)C(=O)[C@H](C)C[C@H](C)/C=C/C=C/C=C/1C [rapamycin, Rapamycin]
- increase in the percentage of GFP+ cells [1]: 2 fold
- transduction efficiency in titration of Rapa ([1]; 10 μg/ml vs lower doses, MOI 1 (FIG. 28)): improved transduction efficiency over lower doses
- GFP+ cells with clinical grade SINLV ([1]; CB-derived CD34+ cells, clinical grade PGK-GFP SINLV, MOI of 10 (FIG. 25A)): up to 60%
- transduction efficiency of WT and CA mutant vectors ([1]; CD34+ cells, SINLVs with single CA point mutations MOI 1, vs DMSO (FIG. 14B)): increased efficiency for all CA mutants
- transduction levels in all HSPC subpopulations ([1]; CD34− progenitors to CD34+CD133+CD90+ cells, FACS three days after transduction (FIG. 15C)): equally improved transduction levels
- increase in the percentage of GFP+ cells [2]: 2 fold
- percentage of GFP+ cells with γ-retroviral SINRV (CB-derived CD34+ cells): neither compound was able to significantly increase
